Measured values from the supplement of paper PMC4862054.
“And” between values parts separate entries of the source, which are not always exact repeats. Equal entries are not always repeated.

How the values were obtained:
CAL-148 [1] = assay: normalised viability (% of control), CellTiter-Blue; higher = more viable cells (about 100 = DMSO control); conditions: incubation time: 72 h
Method: (§1)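 DSRT, CellTiter-Blue viability, 72 h incubation. Signal is normalised to DMSO and benzethonium chloride controls. Value is the normalised response at dose 7.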

CAL-51 [2] = assay: as above; conditions: incubation time: 72 h
Method: as §1

CAL-85-1 [3] = assay: as above; conditions: incubation time: 72 h
Method: as §1

HDQ-P1 [4] = assay: as above; conditions: incubation time: 72 h
Method: as §1

MDA-MB-453 [5] = assay: as above; conditions: incubation time: 72 h
Method: as §1

BT-549 [6] = conditions: 72 h
Procedure, shortened: (§2)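 Compound dissolved in 5 µl medium was placed in 384-well plates before 20 µl of breast cancer cell suspension was added, and the plates were incubated for 72 h. Cells then received 2.5 µl CellTiter-Blue for 2 h at 37 °C, and fluorescence was read at 560/590 nm. EC50 values come from percent-inhibition dose-response fits that were censored at the highest concentration, with plates normalised to vehicle and a positive kill control and rows with a zero drug sensitivity score excluded.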

MFM-223 [7] = conditions: 72 h
Procedure, shortened: as §2

BT-474 = assay: normalised viability (% of control), CellTiter-Blue; higher = more viable cells (about 100 = DMSO control); conditions: 1000 nM; incubation time: 72 h
Procedure, shortened: (§3)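 Normalised viability is given for a single listed concentration of the series. In 384-well plates, breast cancer cell lines were incubated 72 h with compound, then read with CellTiter-Blue (2 h, 37 °C) at 560/590 nm. Per-plate scaling set vehicle to 100 and a positive kill control to 0, with Z'-factor quality control.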

BT-549 [8] = assay: as above; conditions: incubation time: 72 h
Procedure, shortened: as §3

CAL-120 = assay: as above; conditions: incubation time: 72 h
Procedure, shortened: as §3

CAL-148 [9] = assay: as above; conditions: incubation time: 72 h; remark: listed apart in the source
Procedure, shortened: as §3

CAL-51 [10] = assay: as above; conditions: incubation time: 72 h; remark: listed apart in the source
Procedure, shortened: as §3

CAL-85-1 [11] = assay: as above; conditions: incubation time: 72 h; remark: listed apart in the source
Procedure, shortened: as §3

DU-4475 = assay: as above; conditions: incubation time: 72 h
Procedure, shortened: as §3

HCC1143 = assay: as above; conditions: incubation time: 72 h
Procedure, shortened: as §3

HCC1599 = assay: as above; conditions: incubation time: 72 h
Procedure, shortened: as §3

HCC1937 = assay: as above; conditions: incubation time: 72 h
Procedure, shortened: as §3

HDQ-P1 [12] = assay: as above; conditions: incubation time: 72 h; remark: listed apart in the source
Procedure, shortened: as §3

Hs578T = assay: as above; conditions: incubation time: 72 h
Procedure, shortened: as §3

MDA-MB-231 = assay: as above; conditions: incubation time: 72 h
Procedure, shortened: as §3

MDA-MB-436 = assay: as above; conditions: incubation time: 72 h
Procedure, shortened: as §3

MDA-MB-453 [13] = assay: as above; conditions: incubation time: 72 h; remark: listed apart in the source
Procedure, shortened: as §3

MDA-MB-468 = assay: as above; conditions: incubation time: 72 h
Procedure, shortened: as §3

MFM-223 [14] = assay: as above; conditions: incubation time: 72 h
Procedure, shortened: as §3

SK-BR-3 = assay: as above; conditions: incubation time: 72 h
Procedure, shortened: as §3

For O=C(CCBr)N1CCN(C(=O)CCBr)CC1 [Pipobroman] (1000 nM), the normalised viability (CAL-148 [1]) was 95.5%, the normalised viability (CAL-51 [2]) was 114% and the normalised viability (CAL-85-1 [3]) was 88.8%. It also gave a normalised viability (HDQ-P1 [4]) of 91.2% and a normalised viability (MDA-MB-453 [5]) of 93.4%.
C[C@]12C=CC(=O)C=C1CC[C@@H]1[C@@H]2[C@@H](O)C[C@@]2(C)[C@H]1CC[C@]2(O)C(=O)CO [Prednisolone] (1000 nM) showed a normalised viability (CAL-148 [1]) of 109%, a normalised viability (CAL-51 [2]) of 90.3% and a normalised viability (CAL-85-1 [3]) of 101%. It also gave a normalised viability (HDQ-P1 [4]) of 113% and a normalised viability (MDA-MB-453 [5]) of 76.9%.
For CNC(=O)c1cc(Oc2ccc(NC(=O)Nc3ccc(Cl)c(C(F)(F)F)c3)cc2)ccn1 [Sorafenib], the “EC50, CellTiter-Blue viability” value (BT-549 [6]) was 27.1 nM, the “EC50, CellTiter-Blue viability” value (MFM-223 [7]) was 952 nM and the normalised viability (BT-474) was 130% and 106%. The normalised viability (BT-549 [8]; 1 nM) was 83.7% and 97.1%, the normalised viability (BT-549 [8]; 100 nM) was 99.5% and 82.8% and the normalised viability (BT-549 [8]; 1000 nM) was 94.5% and 80.4%. The normalised viability (CAL-120; 1 nM) was 106% and 91.3%, the normalised viability (CAL-120; 100 nM) was 101% and 90.5% and the normalised viability (CAL-120; 1000 nM) was 96.5% and 89%. The normalised viability (CAL-148 [9]; 0.3 nM) was 101% and 88%, the normalised viability (CAL-148 [9]; 3 nM) was 99.3% and 91.5% and the normalised viability (CAL-148 [9]; 10 nM) was 102% and 87.5%. For the same molecule, the normalised viability (CAL-51 [10]; 0.3 nM) was 112% and 107%, the normalised viability (CAL-51 [10]; 3 nM) was 108% and 99.3% and the normalised viability (CAL-51 [10]; 10 nM) was 98.3% and 96.8%. The normalised viability (CAL-85-1 [11]; 0.3 nM) was 98.3% and 99.7%, the normalised viability (CAL-85-1 [11]; 3 nM) was 104% and 98.8% and the normalised viability (CAL-85-1 [11]; 10 nM) was 105% and 108%. The normalised viability (DU-4475; 0.3 nM) was 94.3% and 109%, the normalised viability (DU-4475; 3 nM) was 101% and 95.7% and the normalised viability (HCC1143; 1 nM) was 99% and 84.3%. For the same molecule, the normalised viability (HCC1143; 100 nM) was 105% and 85.9%, the normalised viability (HCC1143; 1000 nM) was 96.1% and 91.6% and the normalised viability (HCC1599; 100 nM) was 115% and 126%. For the same molecule, the normalised viability (HCC1599; 1000 nM) was 100% and 112%, the normalised viability (HCC1937; 100 nM) was 106% and 100% and the normalised viability (HCC1937; 1000 nM) was 82.3% and 82.8%. The normalised viability (HDQ-P1 [12]; 0.3 nM) was 107% and 97.1%, the normalised viability (HDQ-P1 [12]; 3 nM) was 98.5% and 88.8% and the normalised viability (Hs578T; 1 nM) was 126% and 102%. The normalised viability (Hs578T; 100 nM) was 109% and 123%, the normalised viability (Hs578T; 1000 nM) was 101% and 87.8% and the normalised viability (MDA-MB-231; 1 nM) was 103% and 90.2%. The normalised viability (MDA-MB-231; 100 nM) was 88.7% and 96.2%, the normalised viability (MDA-MB-231; 1000 nM) was 84.8% and 63.9% and the normalised viability (MDA-MB-436; 1 nM) was 92.8% and 87%. For the same molecule, the normalised viability (MDA-MB-436; 100 nM) was 103% and 80.7%, the normalised viability (MDA-MB-436; 1000 nM) was 91% and 88.2% and the normalised viability (MDA-MB-453 [13]; 0.3 nM) was 122% and 105%. The normalised viability (MDA-MB-453 [13]; 3 nM) was 97.2% and 99.1%, the normalised viability (MDA-MB-453 [13]; 10 nM) was 96.8% and 102% and the normalised viability (MDA-MB-468; 1 nM) was 115% and 93.2%. For the same molecule, the normalised viability (MDA-MB-468; 1000 nM) was 102% and 112%, the normalised viability (MFM-223 [14]; 1 nM) was 94.9% and 108% and the normalised viability (MFM-223 [14]; 100 nM) was 96.7% and 103%. For the same molecule, the normalised viability (MFM-223 [14]; 1000 nM) was 48.2% and 67.9%, the normalised viability (SK-BR-3; 1 nM) was 112% and 89.3% and the normalised viability (SK-BR-3; 100 nM) was 107% and 102%. For the same molecule, the normalised viability (SK-BR-3; 1000 nM) was 110% and 108%.
With CNC(=O)c1cc(Oc2ccc(NC(=O)Nc3ccc(Cl)c(C(F)(F)F)c3)cc2)ccn1 [Sorafenib] (100 nM) the normalised viability (CAL-148 [1]) was 108%, the normalised viability (CAL-51 [2]) was 106% and the normalised viability (CAL-85-1 [3]) was 90.1% and 102%. For the same molecule, the normalised viability (HDQ-P1 [4]) was 102% and 77.9% and the normalised viability (MDA-MB-453 [5]) was 90.8% and 101%.
In the case of CCN(CC)CCNC(=O)c1c(C)[nH]c(/C=C2\C(=O)Nc3ccc(F)cc32)c1C [Sunitinib] (100 nM), the normalised viability (CAL-148 [1]) is reported as 94.3% and 116%, the normalised viability (CAL-51 [2]) is reported as 115% and 98.3% and the normalised viability (CAL-85-1 [3]) is reported as 93.3% and 99.1%. For the same molecule, the normalised viability (HDQ-P1 [4]) was 91.3% and 100% and the normalised viability (MDA-MB-453 [5]) was 94% and 94.8%.
For CC[C@@]1(O)C(=O)OCc2c1cc1n(c2=O)Cc2cc3c(CN(C)C)c(O)ccc3nc2-1 [Topotecan] (100 nM), the normalised viability (CAL-148 [1]) was 45.5%, the normalised viability (CAL-51 [2]) was 73.3% and the normalised viability (CAL-85-1 [3]) was 85.7%. The normalised viability (HDQ-P1 [4]) was 102% and the normalised viability (MDA-MB-453 [5]) was 90.4%.
